Test results: ChEMBL document CHEMBL5034010, “Novel Cephalosporin Conjugates Display Potent and Selective Inhibition of Imipenemase-Type Metallo-β-Lactamases” (J Med Chem, 2021)
In brackets after ≈: the same amount, converted by molar mass. Activity calls are given as the source filed them. No cut-off for these calls is given here.

Assays:
[1] = test system: Escherichia coli; experiment: Inhibition of Metallo-beta-lactamase NDM-1 in Escherichia coli clinical isolate assessed as MIC for meropenem antibacterial activity at 32 ug/ml (reference value: 32 ug/ml); conditions: dose 32.0 µg/ml
[2] = test system: Escherichia coli; experiment: Inhibition of Metallo-beta-lactamase NDM-1 in Escherichia coli clinical isolate assessed as MIC for meropenem antibacterial activity at 64 ug/ml (reference value: 32 ug/ml); conditions: dose 64.0 µg/ml
[3] = test system: Escherichia coli; experiment: Inhibition of Metallo-beta-lactamase NDM-1 in Escherichia coli clinical isolate assessed as MIC for meropenem antibacterial activity at 128 ug/ml (reference value: 32 ug/ml); conditions: dose 128.0 µg/ml
[4] = test system: Enterobacter cloacae; experiment: Inhibition of Metallo-beta-lactamase IMP-1 in Enterobacter cloacae clinical isolate assessed as MIC for meropenem antibacterial activity at 32 ug/ml (reference value: 32 ug/ml); conditions: dose 32.0 µg/ml
[5] = test system: Enterobacter cloacae; experiment: Inhibition of Metallo-beta-lactamase IMP-1 in Enterobacter cloacae clinical isolate assessed as MIC for meropenem antibacterial activity at 64 ug/ml (reference value: 32 ug/ml); conditions: dose 64.0 µg/ml
[6] = test system: Enterobacter cloacae; experiment: Inhibition of Metallo-beta-lactamase IMP-1 in Enterobacter cloacae clinical isolate assessed as MIC for meropenem antibacterial activity at 128 ug/ml (reference value: 32 ug/ml); conditions: dose 128.0 µg/ml
[7] = test system: Klebsiella pneumoniae; experiment: Inhibition of Metallo-beta-lactamase IMP-28 in Klebsiella pneumoniae clinical isolate assessed as MIC for meropenem antibacterial activity at 32 ug/ml (reference value: 2 ug/ml); conditions: dose 32.0 µg/ml
[8] = test system: Klebsiella pneumoniae; experiment: Inhibition of Metallo-beta-lactamase IMP-28 in Klebsiella pneumoniae clinical isolate assessed as MIC for meropenem antibacterial activity at 64 ug/ml (reference value: 2 ug/ml); conditions: dose 64.0 µg/ml
[9] = test system: Klebsiella pneumoniae; experiment: Inhibition of Metallo-beta-lactamase IMP-28 in Klebsiella pneumoniae clinical isolate assessed as MIC for meropenem antibacterial activity at 128 ug/ml (reference value: 2 ug/ml); conditions: dose 128.0 µg/ml
[10] = test system: Escherichia coli; experiment: Inhibition of Metallo-beta-lactamase VIM-2 in Escherichia coli clinical isolate assessed as MIC for meropenem antibacterial activity at 32 ug/ml (reference value: 4 ug/ml); conditions: dose 32.0 µg/ml
[11] = test system: Escherichia coli; experiment: Inhibition of Metallo-beta-lactamase VIM-2 in Escherichia coli clinical isolate assessed as MIC for meropenem antibacterial activity at 64 ug/ml (reference value: 4 ug/ml); conditions: dose 64.0 µg/ml
[12] = test system: Escherichia coli; experiment: Inhibition of Metallo-beta-lactamase VIM-2 in Escherichia coli clinical isolate assessed as MIC for meropenem antibacterial activity at 128 ug/ml (reference value: 4 ug/ml); conditions: dose 128.0 µg/ml
[13] = Inhibition of Escherichia coli beta-lactamase NDM-1 using nitrocefin chromogenic substrate measured after 15 to 60 min at 25 degC by microplate reader
[14] = Inhibition of Escherichia coli beta-lactamase VIM-2 using nitrocefin chromogenic substrate measured after 15 to 60 min at 25 degC by microplate reader
[15] = test system: Enterobacter cloacae; experiment: Inhibition of Metallo-beta-lactamase IMP-1 in Enterobacter cloacae clinical isolate assessed as fold reduction in meropenem MIC at 32 ug/ml; conditions: dose 32.0 µg/ml
[16] = test system: Enterobacter cloacae; experiment: Inhibition of Metallo-beta-lactamase IMP-1 in Enterobacter cloacae clinical isolate assessed as fold reduction in meropenem MIC at 64 ug/ml; conditions: dose 64.0 µg/ml
[17] = test system: Enterobacter cloacae; experiment: Inhibition of Metallo-beta-lactamase IMP-1 in Enterobacter cloacae clinical isolate assessed as fold reduction in meropenem MIC at 128 ug/ml; conditions: dose 128.0 µg/ml
[18] = test system: Klebsiella pneumoniae; experiment: Inhibition of Metallo-beta-lactamase IMP-28 in Klebsiella pneumoniae clinical isolate assessed as fold reduction in meropenem MIC at 32 ug/ml; conditions: dose 32.0 µg/ml
[19] = test system: Klebsiella pneumoniae; experiment: Inhibition of Metallo-beta-lactamase IMP-28 in Klebsiella pneumoniae clinical isolate assessed as fold reduction in meropenem MIC at 64 ug/ml; conditions: dose 64.0 µg/ml
[20] = test system: Klebsiella pneumoniae; experiment: Inhibition of Metallo-beta-lactamase IMP-28 in Klebsiella pneumoniae clinical isolate assessed as fold reduction in meropenem MIC at 128 ug/ml; conditions: dose 128.0 µg/ml
[21] = test system: Escherichia coli; experiment: Inhibition of Metallo-beta-lactamase VIM-2 in Escherichia coli clinical isolate assessed as fold reduction in meropenem MIC at 32 ug/ml; conditions: dose 32.0 µg/ml
[22] = test system: Escherichia coli; experiment: Inhibition of Metallo-beta-lactamase VIM-2 in Escherichia coli clinical isolate assessed as fold reduction in meropenem MIC at 64 ug/ml; conditions: dose 64.0 µg/ml
[23] = test system: Escherichia coli; experiment: Inhibition of Metallo-beta-lactamase VIM-2 in Escherichia coli clinical isolate assessed as fold reduction in meropenem MIC at 128 ug/ml; conditions: dose 128.0 µg/ml
[24] = test system: Escherichia coli; experiment: Inhibition of Metallo-beta-lactamase NDM-1 in Escherichia coli clinical isolate assessed as fold reduction in meropenem MIC at 32 ug/ml; conditions: dose 32.0 µg/ml
[25] = test system: Escherichia coli; experiment: Inhibition of Metallo-beta-lactamase NDM-1 in Escherichia coli clinical isolate assessed as fold reduction in meropenem MIC at 64 ug/ml; conditions: dose 64.0 µg/ml
[26] = test system: Escherichia coli; experiment: Inhibition of Metallo-beta-lactamase NDM-1 in Escherichia coli clinical isolate assessed as fold reduction in meropenem MIC at 128 ug/ml; conditions: dose 128.0 µg/ml
[27] = test system: Enterobacter cloacae; experiment: Inhibition of Metallo-beta-lactamase IMP-1 in Enterobacter cloacae clinical isolate assessed as MIC for meropenem antibacterial activity at 32 ug/ml (Rvb =16 ug/ml); conditions: dose 32.0 µg/ml
[28] = test system: Enterobacter cloacae; experiment: Inhibition of Metallo-beta-lactamase IMP-1 in Enterobacter cloacae clinical isolate assessed as MIC for meropenem antibacterial activity at 64 ug/ml (Rvb =16 ug/ml); conditions: dose 64.0 µg/ml
[29] = test system: Enterobacter cloacae; experiment: Inhibition of Metallo-beta-lactamase IMP-1 in Enterobacter cloacae clinical isolate assessed as MIC for meropenem antibacterial activity at 128 ug/ml (Rvb =16 ug/ml); conditions: dose 128.0 µg/ml
[30] = test system: Klebsiella pneumoniae; experiment: Inhibition of Metallo-beta-lactamase IMP-28 in Klebsiella pneumoniae clinical isolate assessed as MIC for meropenem antibacterial activity at 32 ug/ml (reference value: 4 ug/ml); conditions: dose 32.0 µg/ml
[31] = test system: Klebsiella pneumoniae; experiment: Inhibition of Metallo-beta-lactamase IMP-28 in Klebsiella pneumoniae clinical isolate assessed as MIC for meropenem antibacterial activity at 64 ug/ml (reference value: 4 ug/ml); conditions: dose 64.0 µg/ml
[32] = test system: Klebsiella pneumoniae; experiment: Inhibition of Metallo-beta-lactamase IMP-28 in Klebsiella pneumoniae clinical isolate assessed as MIC for meropenem antibacterial activity at 128 ug/ml (reference value: 4 ug/ml); conditions: dose 128.0 µg/ml
[33] = test system: Escherichia coli; experiment: Inhibition of Metallo-beta-lactamase VIM-2 in Escherichia coli clinical isolate assessed as MIC for meropenem antibacterial activity at 32 ug/ml (reference value: 8 ug/ml); conditions: dose 32.0 µg/ml
[34] = test system: Escherichia coli; experiment: Inhibition of Metallo-beta-lactamase VIM-2 in Escherichia coli clinical isolate assessed as MIC for meropenem antibacterial activity at 64 ug/ml (reference value: 8 ug/ml); conditions: dose 64.0 µg/ml
[35] = test system: Escherichia coli; experiment: Inhibition of Metallo-beta-lactamase VIM-2 in Escherichia coli clinical isolate assessed as MIC for meropenem antibacterial activity at 128 ug/ml (reference value: 8 ug/ml); conditions: dose 128.0 µg/ml
[36] = Stability of the compound in Muller hinton broth assessed compound remaining measured after 15 hrs by HPLC analysis; format: physicochemical; conditions: Mueller Hinton broth, read-out: Stability
[37] = test system: Enterobacter cloacae; experiment: Antibacterial activity against beta-lactamase IMP1 producing Enterobacter cloacae clinical isolate measured upto 128 ug/ml; format: functional, organism-based
[38] = test system: Klebsiella pneumoniae; experiment: Antibacterial activity against beta-lactamase IMP-28 producing Klebsiella pneumoniae clinical isolate measured upto 128 ug/ml; format: functional, organism-based
[39] = test system: Escherichia coli; experiment: Antibacterial activity against beta-lactamase VIM2 producing Escherichia coli clinical isolate measured upto 128 ug/ml; format: functional, organism-based
[40] = Inhibition of Enterobacter cloacae IMP-1 using nitrocefin chromogenic substrate measured after 15 to 60 min at 25 degC by microplate reader
[41] = Inhibition of Klebsiella pneumoniae beta-lactamase IMP-28 using nitrocefin chromogenic substrate measured after 15 to 60 min at 25 degC by microplate reader
[42] = test system: Escherichia coli; experiment: Antibacterial activity against beta-lactamase NDM1 producing Escherichia coli clinical isolate measured upto 128 ug/ml; format: functional, organism-based
[43] = test system: Klebsiella pneumoniae; experiment: Substrate activity at Klebsiella pneumoniae beta-lactamase IMP-28 assessed as compound hydrolysis by measuring Km by Michaelis-Menten analysis
[44] = test system: Klebsiella pneumoniae; experiment: Substrate activity at Klebsiella pneumoniae beta-lactamase IMP-28 assessed as compound hydrolysis by measuring Kcat by Michaelis-Menten analysis
[45] = test system: Klebsiella pneumoniae; experiment: Substrate activity at Klebsiella pneumoniae beta-lactamase IMP-28 assessed as compound hydrolysis by measuring Kcat/Km by Michaelis-Menten analysis

Row | SMILES | MIC [1] [µg/mL] | MIC [2] [µg/mL] | MIC [3] [µg/mL] | MIC [7] [µg/mL] | MIC [8] [µg/mL] | MIC [9] [µg/mL] | MIC [10] [µg/mL] | IC50 [14] [µM] | fold change (FC) [15] | fold change (FC) [16] | fold change (FC) [17] | fold change (FC) [18] | fold change (FC) [19] | fold change (FC) [20] | fold change (FC) [21] | fold change (FC) [22] | fold change (FC) [23] | fold change (FC) [24] | fold change (FC) [25] | fold change (FC) [26] | other results
1 | O=C(O)c1cccc(C(=O)O)n1 [DIPICOLINIC ACID] | 0.5 (≈ 2.99 µM) | 0.5 (≈ 2.99 µM) | < 0.5 | 0.125 (≈ 0.748 µM) | < 0.031 | < 0.031 | < 0.063 | 10 | 2 | 32 | 128 | 16 | > 64 | > 64 | > 64 | > 64 | > 64 | 64 | 64 | > 64 | MIC [4]: 16 µg/mL (≈ 95.7 µM); MIC [5]: 1 µg/mL (≈ 5.98 µM); MIC [6]: 0.25 µg/mL (≈ 1.5 µM); MIC [11]: < 0.063 µg/mL; MIC [12]: < 0.063 µg/mL; IC50 [13]: 10 µM
2 | O=C(Cc1ccccc1)N[C@@H]1C(=O)N2C(C(=O)O)=C(CSCC(=O)c3ccccc3)CS[C@H]12 | 16 (≈ 33.2 µM) | 8 (≈ 16.6 µM) | 8 (≈ 16.6 µM) |  |  |  |  | 76 | 2 | 2 | 4 | 4 | 8 | 16 | 1 | 2 | 2 | 2 | 4 | 4 | MIC [27]: 8 µg/mL (≈ 16.6 µM); MIC [28]: 8 µg/mL (≈ 16.6 µM); MIC [29]: 4 µg/mL (≈ 8.29 µM); MIC [30]: 1 µg/mL (≈ 2.07 µM); MIC [31]: 0.5 µg/mL (≈ 1.04 µM); MIC [32]: 0.25 µg/mL (≈ 0.518 µM); MIC [33]: 8 µg/mL (≈ 16.6 µM); MIC [34]: 4 µg/mL (≈ 8.29 µM); MIC [35]: 4 µg/mL (≈ 8.29 µM); remaining at 15 h [36]: > 95%; Activity [37]: inactive; Activity [38]: inactive; Activity [39]: inactive; IC50 [40]: 3.3 µM; IC50 [41]: 14 µM; IC50 [13]: 77 µM; Activity [42]: inactive
3 | CC1=C(C(=O)O)N2C(=O)[C@@H](NC(=O)Cc3ccccc3)[C@H]2SC1 | 16 (≈ 48.1 µM) | 16 (≈ 48.1 µM) | 16 (≈ 48.1 µM) | 1 (≈ 3.01 µM) | 0.5 (≈ 1.5 µM) | 0.25 (≈ 0.752 µM) | 2 (≈ 6.02 µM) | 57 | 1 | 1 | 1 | 2 | 4 | 8 | 2 | 2 | 4 | 2 | 2 | 2 | MIC [27]: 16 µg/mL (≈ 48.1 µM); MIC [28]: 16 µg/mL (≈ 48.1 µM); MIC [29]: 16 µg/mL (≈ 48.1 µM); MIC [11]: 2 µg/mL (≈ 6.02 µM); MIC [12]: 1 µg/mL (≈ 3.01 µM); Activity [37]: inactive; Activity [38]: inactive; Activity [39]: inactive; IC50 [40]: > 100 µM; IC50 [41]: > 100 µM; Km [43]: 392 µM; kcat [44]: 23.3 s⁻¹; kcat/Km [45]: 59000 M⁻¹ s⁻¹; Activity [42]: inactive
